Assay results from publication PMC12749748, “Chemically-induced degradation of the endoplasmic-reticulum stress sensor IRE1 by a VHL-recruiting chimera” (Nature Communications, 2025).

Tests used:
BRD4 = tested on: BRD4; set-up: method as in earlier work; conditions: VHL:PROTAC:BRD4; cited from earlier work
OPM2 cells = assay: Incucyte cell confluency, OPM2 cells; assay type: cell-based; conditions: OPM2 shIRE1 cells, titration
Protocol: (§1) For non-adherent AMO1, KMS27, and OPM2 cells, cells were plated at 5000 cells/well in ultra-low attachment (ULA) 96-well plates (Costar, #7007) and centrifuged at 600 × g for 5 min for spheroid formation. For adherent U2OS and Colo201 cells, 2000 cells/well were seeded in a clear flat-bottom 96-well plate (Costar, #3595). Treatments were added at the time of cell seeding, and cells were cultured in complete RPMI media to a final volume of 200 µL/well. Cultures were maintained at 37 °C throughout the duration of the experiment. Cell confluency was tracked using the Incucyte live-cell imaging system (Sartorius S3). Picture frames were captured every 4 h with a 4× objective, and cell confluency (%) from the total well area as a function of time was calculated using the Incucyte software (version 2023 A Rev2).

AMO1 cells = assay: Incucyte cell confluency, AMO1 cells; assay type: cell-based
Protocol: as §1

KMS27 cells = assay: Incucyte cell confluency, KMS27 cells; assay type: cell-based; conditions: KMS27 shIRE1 cells, titration
Protocol: as §1

[1] = tested on: IRE1-dependent or -independent cell lines; assay: Incucyte, IRE1-dependent or -independent cell lines together; assay type: cell-based
Protocol: as §1

IRE1 = IRE1 (Homo sapiens, UniProt O75460); assay: Endogenous IRE1 protein levels in AMO1 or H929 cells (immunoblot); assay type: cell-based; set-up: Immunoblot (IB) analysis of endogenous IRE1 depletion in AMO1 cells; endogenous in cells; host or cells: AMO1, KMS27, H929; conditions: 1 µM, 4 hr
Protocol: (§2) Cells were lysed in buffer containing 20 mM HEPES 7.2, 150 mM NaCl, and 1% Triton X-100, supplemented with fresh protease and phosphatase inhibitors (Invitrogen, #78440), cleared by centrifugation at 12,000 × g for 10 min, and analyzed by BCA protein assay (Thermo Fisher Scientific, #23227). Equal protein amounts were loaded, separated by SDS-PAGE, electrotransferred to nitrocellulose membranes using the iBLOT2 system (Invitrogen), and blocked in 5% nonfat milk solution for 60 min. Membranes were probed with primary antibodies at 1:1000 dilution in 5% milk at 4 °C overnight. Signal was detected using appropriate horseradish peroxidase (HRP)-conjugated secondary antibodies at 1:10,000 in 5% milk at room temperature for 1–2 h. Bands were visualized by the Azure 600 western blot imaging system (Azure Biosystems). For in vitro ubiquitination assays performed with Me-Ub, bands were visualized by the Odyssey CLx Imager (LI‑COR) after incubating the blots with the IRDye 800CW (LI-COR) secondary antibodies at 1:10,000 in Intercept Blocking Buffer (LI-COR) at room temperature for 1–2 h.

VCB (VHL:EloC:EloB) = VCB (VHL:EloC:EloB) (Homo sapiens, UniProt P40337); assay: Surface plasmon resonance, binary interaction with VCB; assay type: binding; conditions: SPR, immobilised VCB, 20 °C, 1 to 1 kinetic model
Protocol: All SPR experiments in this paper were recorded on a Biacore S200 instrument; all protein captures and data collection were at 20 °C.
For binary interactions with G6374: a Xantec SAHC 200 M (streptavidin) chip was inserted into the instrument and primed into running buffer [50 mM HEPES (pH 7.4), 150 mM NaCl, 0.001% Tween 20, 0.2% PEG3350, 0.25 mM TCEP, and 2% DMSO]. Biotinylated human IRE1.KR protein was captured on FC2 to 2-4000 RU, biotinylated VHL in complex with Elongin B (VHL/EloB) was captured on FC4 to 1-2000 RU, data were collected, and all referenced to FC1. Affinity for G6374 was measured using a titration series, injected from low to high with an 8-point, 2-fold dilution dose response with a top concentration of 0.5 μM in both single cycle (single cycle kinetics (SCK)) and multi cycle kinetics (MCK) formats. For MCK experiments, an association time of 45 s and a dissociation time of 200 s with a flow rate of 50 μL/min. For SCK experiments, an association time of 45 s and a dissociation time of 2000 s with a flow rate of 50 μL/min were used. All data were analyzed using Insight software (Cytiva) using a 1 to 1 kinetic binding model.

WDR5 = tested on: WDR5; set-up: method as in earlier work; conditions: VHL:PROTAC:WDR5; cited from earlier work
IRE1:VHL [2] = biological target: T1, IRE1:VHL (Homo sapiens, UniProt O75460+P40337); assay: NanoBRET IRE1:VHL interaction, WT IRE1, HEK293T cells; assay type: cell-based; set-up: N2731 (HaloTag-VHL); host or cells: HEK293T; conditions: HEK293T, 1 µM G6374 and a titration of G5758
Protocol: 8 × 10^5 293T cells per well were seeded in 6-well plates (Costar, #3516) and incubated at 37 °C, 5% CO2 for 6 h. A mixture of 0.2 µg ERN1 (IRE1)-NanoLuc Fusion Vector (Promega, NV1321), 2 µg HaloTag-VHL Fusion Vector (Promega, N2731), 6 µl FuGENE HD Transfection Reagent (Promega, E2311), and 100 µL Opti-MEM I reduced serum medium (Gibco, #31985062) per well was incubated at room temperature for 20 min before adding to cells. For expression of IRE1 mutants, site-directed mutagenesis was performed using the ERN1-NanoLuc Fusion Vector as the DNA template, and the transfection mixture was prepared in the same way as WT IRE1. After 18 h, cells from 6-well plates were trypsinized, resuspended in Opti-MEM I reduced serum medium, and reseeded into 96-well plates (Costar, #3917), with or without the addition of HaloTag NanoBRET 618 Ligand (Promega, G9801). […] After 2 h of G6374 treatment, NanoBRET Nano-Glo Substrate (Promega, N1571) was added to cells. The 96-well plates were imaged by GloMax Discover Microplate Reader (Promega, GM3000) with the default “BRET: NanoBRET 618” protocol (Donor: 450 BP; Acceptor: 600 LP; Integration: 0.3 s). Data analysis was performed according to the user manual.

IRE1:VHL [3] = biological target: T1, IRE1:VHL; assay: co-IP of endogenous VHL with endogenous IRE1 from AMO1 cells; assay type: cell-based; set-up: co-IP of endogenous VHL with endogenous IRE1 from AMO1 cells; endogenous in cells; host or cells: AMO1; conditions: G5758 in excess of G6374
Protocol: as §2
IRE1.LD antibodies were conjugated to agarose beads using the AminoLink® Plus Immobilization Kit (Thermo Fisher, #44894). […]

For `Cc1ncsc1-c1ccc(CNC(=O)[C@@H]2C[C@H](O)CN2C(=O)[C@@H](NC(=O)CCCCN2CCN(C3CCC(Nc4ncc5ccc(=O)n(C(C)C)c5n4)CC3)CC2)C(C)(C)C)cc1` (some centres unmarked) [G2642], which “growth inhibition (cell confluency)” value (OPM2 cells) is on record?
Its value is “neither its epimer control G2642, nor the VHL ligand VH032, induced a concentration-dependent growth inhibition”.

And the “growth inhibition (cell confluency)” value (AMO1 cells; AMO1 shIRE1 cells, titration)?
The value was “neither its epimer control G2642, nor the VHL ligand VH032, induced a concentration-dependent growth inhibition”.

And the “growth inhibition (cell confluency)” value (KMS27 cells)?
The value was “neither its epimer control G2642, nor the VHL ligand VH032, induced a concentration-dependent growth inhibition”.

What about the anti-proliferative activity [1] of the same compound?
The anti-proliferative activity was “no anti-proliferative activity”.

What about the “degradation of cellular IRE1” value (IRE1) of the same compound?
The value was “does not degrade cellular IRE1”.

With `CC(=O)c1cnc2ccc(-c3cc(Cl)c(O)c(Cl)c3)nc2c1N[C@H]1CC[C@H](CN(C)C)CC1` [OTSSP167, reference compound] as the compound, how does the “proliferation of AMO1 cells” value (AMO1 cells; at 3X the IC50 of OTSSP167) read?
The value was “did not”.

What does the source list for `CC(=O)N[C@H](C(=O)N1C[C@H](O)C[C@H]1C(=O)NCc1ccc(-c2scnc2C)cc1)C(C)(C)C` [VH032, reference compound]?
ka (VCB (VHL:EloC:EloB)): 550000 M⁻¹ s⁻¹; kd (VCB (VHL:EloC:EloB)): 0.13 s⁻¹

For `Cc1ncsc1-c1ccc([C@H](C)NC(=O)[C@@H]2C[C@@H](O)CN2C(=O)[C@@H](NC(=O)CNC(=O)c2ccc(F)c(-c3ccc(N4C[C@@H](C)N(C)[C@@H](C)C4)c(NC(=O)c4c[nH]c(=O)cc4C(F)(F)F)c3)c2)C(C)(C)C)cc1` [MS67], which DC50 (WDR5) is on record?
Its DC50 is 3.7 nM.

What about the Dmax (WDR5) of the same compound?
The Dmax was 94%.

Which “disruption of G6374-induced IRE1:VHL interaction (NanoBRET)” value (IRE1:VHL [2]) does the source give for `O=S(=O)(Cc1ccccc1)Nc1c(F)cc(Oc2ncccc2-c2ccnc(N[C@@H]3CNC[C@@H](F)C3)n2)c(F)c1F` [G5758, reference compound] here?
The value was “could disrupt G6374-induced interaction between IRE1 and VHL”.

What about the “competition with G6374-induced IRE1:VHL association and IRE1 depletion (co-IP)” value (IRE1:VHL [3]) of the same compound?
Its value is “attenuated the induced association between IRE1 and VHL as well as the depletion of IRE1”.
